The subject of one assay is σ1 receptor and the μ-opiod receptor. The assay is described as follows: μ and σ1 dual binding: combined class from the Ki of both radioligand assays. More on the design: species or system human; key to μ and σ1 dual binding: +: Both Ki-μ and Ki-σ1>=500 nM; ++: One Ki<500 nM while the other Ki is >=500 nM; +++: Both Ki-μ and Ki-σ1<500 nM; ++++: Both Ki-μ and Ki-σ1<100 nM. To be noted: combined class for Ki-μ and Ki-σ1; transfected HEK-293 membranes (σ1), transfected CHO-K1 cell membranes (μ). Put shortly:
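Classes combine both Ki values, split at 500 nM and 100 nM. Human μ-opioid binding used 1 nM [3H]-DAMGO on CHO-K1 membranes (27 °C, 60 min, pH 7.4, naloxone 10 μM for NSB); human σ1 used 5 nM [3H](+)-pentazocine on HEK-293 membranes (37 °C, 120 min, pH 8, haloperidol 10 μM for NSB).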
For the compound `CS(=O)(=O)Nc1cccc(C2CCN(Cc3cn([C@H]4c5ccccc5C[C@@H]4O)nn3)CC2)c1` [Example 91, N-(3-(1-((1-((1S,2S)-2-hydroxy-2,3-dihydro-1H-inden-1-yl)-1H-1,2,3-triazol-4-yl)methyl)piperidin-4-yl)phenyl)methanesulfonamide], the “μ and σ1 dual binding” value was “++”. On to `CC1(n2cc(CN3CCC(c4cccc(O)c4)CC3)nn2)C(=O)Nc2ccccc21` (stereo not shown) [Example 95, 3-(4-((4-(3-hydroxyphenyl)piperidin-1-yl)methyl)-1H-1,2,3-triazol-1-yl)-3-methylindolin-2-one], for which the “μ and σ1 dual binding” value is listed as “++”. On to `CS(=O)(=O)Nc1cccc(C2CCN(Cc3cn([C@@H]4Cc5ccccc5[C@@H]4O)nn3)CC2)c1` [Example 97, N-(3-(1-((1-((1S,2R)-1-hydroxy-2,3-dihydro-1H-inden-2-yl)-1H-1,2,3-triazol-4-yl)methyl)piperidin-4-yl)phenyl)methanesulfonamide], for which the “μ and σ1 dual binding” value is “++”. Still for that read-out and setting: to `CS(=O)(=O)Nc1cccc(C2CCN(Cc3cn(Cc4ccccn4)nn3)CC2)c1` [Example 98, N-(3-(1-((1-(pyridin-2-ylmethyl)-1H-1,2,3-triazol-4-yl)methyl)piperidin-4-yl)phenyl)methanesulfonamide] belongs “++”. For `CS(=O)(=O)Nc1cccc(C2CCN(Cc3cn(Cc4cccnc4)nn3)CC2)c1` [Example 99, N-(3-(1-((1-(pyridin-3-ylmethyl)-1H-1,2,3-triazol-4-yl)methyl)piperidin-4-yl)phenyl)methanesulfonamide], the “μ and σ1 dual binding” value is given as “++”. Same read-out and setting: to `CS(=O)(=O)Nc1cccc(C2CCN(Cc3cn([C@@H]4Cc5ccccc5[C@H]4O)nn3)CC2)c1` [Example 100, N-(3-(1-((1-((1R,2R)-1-hydroxy-2,3-dihydro-1H-inden-2-yl)-1H-1,2,3-triazol-4-yl)methyl)piperidin-4-yl)phenyl)methanesulfonamide] belongs “++”; to `COc1c(NS(C)(=O)=O)cccc1C1CCN(Cc2cn(Cc3ccccc3)nn2)CC1` [Example 102, N-(3-(1-((1-benzyl-1H-1,2,3-triazol-4-yl)methyl)piperidin-4-yl)-2-methoxyphenyl)methanesulfonamide], “++”. As for `CCC(=O)Nc1cccc(C2CCN(Cc3cn(Cc4ccccn4)nn3)CC2)c1` [Example 103, N-(3-(1-((1-(pyridin-2-ylmethyl)-1H-1,2,3-triazol-4-yl)methyl)piperidin-4-yl)phenyl)propionamide], the “μ and σ1 dual binding” value is on record as “++”. With `CC(C)S(=O)(=O)Nc1cccc(C2CCN(Cc3cn([C@@H]4c5ccccc5C[C@H]4O)nn3)CC2)c1` [Example 104, N-(3-(1-((1-((1R,2R)-2-hydroxy-2,3-dihydro-1H-inden-1-yl)-1H-1,2,3-triazol-4-yl)methyl)piperidin-4-yl)phenyl)propane-2-sulfonamide], the “μ and σ1 dual binding” value was “++”.

Still in this assay, the particulars now being: transfected HEK-293 membranes (σ1), transfected CHO-K1 cell membranes (μ).
In the case of `CS(=O)(=O)Nc1cccc(C2CCN(Cc3cn([C@@H]4c5ccccc5C[C@H]4O)nn3)CC2)c1` [Example 92, N-(3-(1-((1-((1R,2R)-2-hydroxy-2,3-dihydro-1H-inden-1-yl)-1H-1,2,3-triazol-4-yl)methyl)piperidin-4-yl)phenyl)methanesulfonamide], the Ki range for both μ and σ1 (dual-binding class) was less than 500 nM.

Regarding `Nc1cccc(C2CCN(Cc3cn(-c4ccccc4)nn3)CC2)c1` [Example 94, 3-(1-((1-phenyl-1H-1,2,3-triazol-4-yl)methyl)piperidin-4-yl)aniline], the Ki range for both μ and σ1 (dual-binding class) was less than 100 nM.

Turning to `Oc1cccc(C2CCN(Cc3cn([C@@H]4Cc5ccccc5[C@@H]4O)nn3)CC2)c1` [Example 96, (1S,2R)-2-(4-((4-(3-hydroxyphenyl)piperidin-1-yl)methyl)-1H-1,2,3-triazol-1-yl)-2,3-dihydro-1H-inden-1-ol], the Ki range for both μ and σ1 (dual-binding class) is less than 500 nM. Take `COc1c(NS(C)(=O)=O)cccc1C1CCN(Cc2cn(-c3ccccc3)nn2)CC1` [Example 101, N-(2-methoxy-3-(1-((1-phenyl-1H-1,2,3-triazol-4-yl)methyl)piperidin-4-yl)phenyl)methanesulfonamide]: the Ki range for both μ and σ1 (dual-binding class) was less than 500 nM.

The values above are taken from patent publication US9981942B2, “Piperidine derivatives having multimodal activity against pain” (LABORATORIOS DEL DR. ESTEVE S.A., priority 2013, dated 2018).
